Here are results for eleven compounds from ChEMBL document CHEMBL1152952, “Synthesis and pharmacological evaluation of 1,2,3,4-tetrahydropyrazino[1,2-a]indole and 2-[(phenylmethylamino)methyl]-1H-indole analogues as novel melatoninergic ligands” (Bioorg Med Chem, 2009).

Calls of active or inactive are those of the source. No cut-off for these calls is given here.

One assay is filed under the species Homo sapiens. In words: Selectivity ratio of Ki for human MT1 receptor to Ki for human MT2 receptor.
In assay [1] the target is T1, Melatonin receptor type 1A (Homo sapiens, UniProt P48039). In words: Displacement of 2-[125I]iodomelatonin from human MT1 receptor expressed in CHO cells by gamma counting. The class given is cell-based.
T1 sequence (P48039 whole entry): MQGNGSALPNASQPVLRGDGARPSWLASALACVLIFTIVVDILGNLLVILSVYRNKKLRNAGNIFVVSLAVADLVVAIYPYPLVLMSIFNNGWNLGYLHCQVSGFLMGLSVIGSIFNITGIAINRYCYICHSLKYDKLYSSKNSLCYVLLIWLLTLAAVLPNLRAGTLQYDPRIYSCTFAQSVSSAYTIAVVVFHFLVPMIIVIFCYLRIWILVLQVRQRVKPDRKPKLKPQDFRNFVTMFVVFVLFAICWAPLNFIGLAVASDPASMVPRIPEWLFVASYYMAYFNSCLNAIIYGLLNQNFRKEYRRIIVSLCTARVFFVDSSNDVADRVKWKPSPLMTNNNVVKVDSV
Assay [2] concerns the target T2, Melatonin receptor type 1B (Homo sapiens, UniProt P49286).
T2 sequence (P49286 whole entry): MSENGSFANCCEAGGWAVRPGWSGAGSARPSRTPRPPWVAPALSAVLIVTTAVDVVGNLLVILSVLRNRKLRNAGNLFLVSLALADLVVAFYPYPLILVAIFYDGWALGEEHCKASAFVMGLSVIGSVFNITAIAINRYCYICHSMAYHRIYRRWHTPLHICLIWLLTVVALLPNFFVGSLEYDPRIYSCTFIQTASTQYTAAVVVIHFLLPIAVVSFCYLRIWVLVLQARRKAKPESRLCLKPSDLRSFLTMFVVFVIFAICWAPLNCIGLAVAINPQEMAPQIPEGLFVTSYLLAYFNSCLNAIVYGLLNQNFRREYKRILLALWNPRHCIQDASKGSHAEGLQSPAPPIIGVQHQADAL
In words: Displacement of 2-[125I]iodomelatonin from human MT2 receptor expressed in CHO cells by gamma counting. The class given is cell-based.

The target of assay [3] is T1, Melatonin receptor type 1A. In words: Agonist activity at human MT1 receptor expressed in CHO cells assessed as inhibition of forskolin-induced cAMP accumulation. The class given is functional, cell-based. A general note: Cyclic AMP is a second messenger, typically raised through Gs and lowered through Gi signalling.
The target in assay [4] is T3, Melatonin receptor type 1B (Homo sapiens) (UniProt P49286).
T3 sequence (whole entry): T2 sequence (P49286 whole entry)
In words: Intrinsic activity at human MT2 receptor expressed in CHO cells assessed as inhibition of forskolin-induced cAMP accumulation at 10 nM. Format: functional, cell-based.

Assay [5] concerns the target T1, Melatonin receptor type 1A. In words: Agonist activity at human MT1 receptor expressed in CHO cells assessed as inhibition of forskolin-induced cAMP accumulation at 10 nM. The class given is functional, cell-based.
The target in assay [6] is T1, Melatonin receptor type 1A. In words: Agonist activity at human MT1 receptor expressed in CHO cells assessed as inhibition of forskolin-induced cAMP accumulation at 1 uM. Format: functional, cell-based.

Turning to `COc1ccc2[nH]c(CN(C)c3ccc(Cl)cc3)c(CCNC(C)=O)c2c1`, the Ratio Ki in the assay filed under Homo sapiens was 6. Further, the Ki in assay [1] (read-out: pKi (converted)) was 257 nM; in assay [2] (read-out: pKi (converted)), 42.7 nM.

On to `COc1ccc2[nH]c(CN(C)c3ccc(C(F)(F)F)cc3)c(CCNC(C)=O)c2c1`, for which the Ki was found to be 111 nM in assay [1] (read-out: Ki) and 63 nM in assay [2] (read-out: Ki).

With `CCCC(=O)NCCc1c2n(c3ccc(OC)cc13)CCN(C)C2`, the Ki in assay [1] (read-out: pKi (converted)) is 6.61 nM; in assay [2] (read-out: pKi (converted)), 6.92 nM. Also, the IC50 (commonly the point on the concentration scale where inhibition reaches its midpoint) in assay [3] was found to be 3.14 nM. For the same compound, in assay [4], the result was inactive. Besides, the inhibition (in general, the drop in the measured response relative to a control, in per cent) in assay [5] is 12%.

In the case of `CCCC(=O)NCCc1c2n(c3ccccc13)CCN(C)C2`, the Ki is 257 nM in assay [1] (read-out: pKi (converted)) and 85.1 nM in assay [2] (read-out: pKi (converted)).

With `COc1ccc(N(C)Cc2[nH]c3ccc(OC)cc3c2CCNC(C)=O)cc1`, the figures for the Ki in assay [1] (read-out: Ki) and in assay [2] (read-out: Ki) were 8 nM and 9 nM, respectively.

Consider `COc1ccc2[nH]c(CN(C)c3ccccc3)c(CCNC(C)=O)c2c1`, for which the Ratio Ki in the assay listed under Homo sapiens stood at 8. For the same compound, the inhibition in assay [6] was found to be 60%. Also, the Ki was 15.5 nM in assay [1] (read-out: pKi (converted)) and 2.29 nM in assay [2] (read-out: pKi (converted)). In assay [4], the outcome was inactive.

In the case of `COc1ccc2c(c1)c(CCNC(C)=O)c1n2CCCN(C)C1`, the Ratio Ki in the assay filed under Homo sapiens turned out to be 6. Further, the Ki is 5620 nM in assay [1] (read-out: pKi (converted)) and 891 nM in assay [2] (read-out: pKi (converted)).

Regarding `CCN(C)Cc1[nH]c2ccc(OC)cc2c1CCNC(C)=O`, the Ki in assay [1] (read-out: pKi (converted)) was 1000 nM; in assay [2] (read-out: pKi (converted)), 224 nM.

As to `COc1ccc2c(c1)c(CCNC(C)=O)c1n2CCN(C)C1`, the Ki is 11.7 nM in assay [1] (read-out: pKi (converted)) and 7.76 nM in assay [2] (read-out: pKi (converted)).

Regarding `COc1ccc2[nH]c(CN(C)Cc3ccccc3)c(CCNC(C)=O)c2c1`, the Ki was 1290 nM in assay [1] (read-out: pKi (converted)) and 661 nM in assay [2] (read-out: pKi (converted)).

Consider `COc1ccc2c(c1)CC1Cn3c(c(CCNC(C)=O)c4cc(OC)ccc43)CN21` (centres undefined), for which the Ratio Ki in the assay listed under Homo sapiens turned out to be 4.4.
